Assay results reported in PubChem BioAssay AID330 (DTP/NCI, 2004).
“And” between values parts separate entries of the source, which are not always exact repeats. Equal entries are not always repeated. Inconclusive results and toxic doses are left out. Rule for the calls: active = survival T/C of 150% or more; inactive = T/C below 125% in these data.

System: P388 leukemia ip, CD2F1 mice, survival T/C
Assay: NCI In Vivo Anticancer Drug Screen. Data for tumor model P388 Leukemia (intraperitoneal) in CD2F1 (CDF1) mice
Settings: endpoint: median survival time, higher = longer survival
Summary of the method: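 Mice carrying the transplanted tumor received test compound or vehicle. Survival was recorded in each group, and the value is the treated-group measurement divided by that of the vehicle-treated control group.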

[1] = dose: 50.0 mg/kg/injection, schedule: Q01DX005 (ip), vehicle: Klucel (hydroxypropylcellulose) (HPC)
[2] = dose: 100.0 mg/kg/injection, schedule: Q01DX005 (ip), vehicle: Klucel (hydroxypropylcellulose) (HPC)
[3] = dose: 200.0 mg/kg/injection, schedule: Q01DX005 (ip), vehicle: Klucel (hydroxypropylcellulose) (HPC)
[4] = dose: 50.0 mg/kg/injection, schedule: Q01DX009 (ip), vehicle: Klucel (hydroxypropylcellulose) (HPC)
[5] = dose: 100.0 mg/kg/injection, schedule: Q01DX009 (ip), vehicle: Klucel (hydroxypropylcellulose) (HPC)
[6] = dose: 200.0 mg/kg/injection, schedule: Q01DX009 (ip), vehicle: Klucel (hydroxypropylcellulose) (HPC)
[7] = dose: 15.0 mg/kg/injection, schedule: Q01DX005 (ip), vehicle: saline with Tween-80
[8] = dose: 30.0 mg/kg/injection, schedule: Q01DX005 (ip), vehicle: saline with Tween-80
[9] = dose: 60.0 mg/kg/injection, schedule: Q01DX005 (ip), vehicle: saline with Tween-80
[10] = dose: 240.0 mg/kg/injection, schedule: Q01DX005 (ip), vehicle: saline with Tween-80
[11] = dose: 50.0 mg/kg/injection, schedule: Q01DX009 (ip), vehicle: saline with Tween-80
[12] = dose: 100.0 mg/kg/injection, schedule: Q01DX009 (ip), vehicle: saline with Tween-80
[13] = dose: 200.0 mg/kg/injection, schedule: Q01DX009 (ip), vehicle: saline with Tween-80
[14] = dose: 120.0 mg/kg/injection, schedule: Q01DX005 (ip), vehicle: saline with Tween-80
[15] = dose: 100.0 mg/kg/injection, schedule: Q04DX003 (ip), vehicle: saline with Tween-80
[16] = dose: 200.0 mg/kg/injection, schedule: Q04DX003 (ip), vehicle: saline with Tween-80
[17] = dose: 50.0 mg/kg/injection, schedule: Q01DX005 (ip), vehicle: saline with Tween-80
[18] = dose: 100.0 mg/kg/injection, schedule: Q01DX005 (ip), vehicle: saline with Tween-80
[19] = dose: 200.0 mg/kg/injection, schedule: Q01DX005 (ip), vehicle: saline with Tween-80

Measured: T/C

C[n+]1c(-c2cccc(OCCOCCOc3cccc(-c4c5cc(N)ccc5c5ccc(N)cc5[n+]4C)c3)c2)c2cc(N)ccc2c2ccc(N)cc21
inactive: dose: 0.19 mg/kg/injection, schedule: Q01DX009 (ip), vehicle: water 114 % of control | dose: 0.39 mg/kg/injection, schedule: Q01DX009 (ip), vehicle: water 114 % of control | dose: 6.25 mg/kg/injection, schedule: Q01DX009 (ip), vehicle: water 102 % of control
active: dose: 1.56 mg/kg/injection, schedule: Q01DX009 (ip), vehicle: water 170 % of control | dose: 3.13 mg/kg/injection, schedule: Q01DX009 (ip), vehicle: water 172 % of control

COc1ccc2c(c1)CCc1cn[nH]c1-2
inactive: [1] 93 % of control | [2] 92 % of control | [3] 93 % of control

C=CCC12CC(OC)C(O)CC1(O)OC(c1cc(OC)c(OC)c(OC)c1)C2C (centres undefined)
inactive: dose: 1.25 mg/kg/injection, schedule: Q01DX005 (ip), vehicle: acid diluted with saline 115 % of control | dose: 2.5 mg/kg/injection, schedule: Q01DX005 (ip), vehicle: acid diluted with saline 100 % of control | dose: 5.0 mg/kg/injection, schedule: Q01DX005 (ip), vehicle: acid diluted with saline 93 % of control | dose: 10.0 mg/kg/injection, schedule: Q01DX005 (ip), vehicle: acid diluted with saline 106 % of control

CS(=O)(=O)C(CCC(=O)c1ccc([N+](=O)[O-])cc1)C(=O)c1ccccc1 (centres undefined)
inactive: [1] 98 % of control | [2] 96 % of control | [3] 104 % of control

CC(=O)OCC1OC(S[As](C)CCO)C(OC(C)=O)C(OC(C)=O)C1OC(C)=O (centres undefined)
inactive: dose: 12.5 mg/kg/injection, schedule: Q01DX009 (ip), vehicle: Klucel (hydroxypropylcellulose) (HPC) 103 % of control and 109 % of control | dose: 25.0 mg/kg/injection, schedule: Q01DX009 (ip), vehicle: Klucel (hydroxypropylcellulose) (HPC) 102 % of control and 113 % of control | [4] 103 % of control and 117 % of control and 122 % of control | [5] 111 % of control and 116 % of control | [6] 108 % of control

COC(=O)C1=C(C(=O)OC)C2OC1c1cc3ccccc3cc12
inactive: dose: 7.5 mg/kg/injection, schedule: Q01DX005 (ip), vehicle: saline with Tween-80 113 % of control | [7] 113 % of control | [8] 108 % of control | [9] 97 % of control

O=C(NC(=S)Nc1cccc2c(O)cccc12)c1cccc(Br)c1
inactive: [7] 91 % of control | [8] 89 % of control | [9] 91 % of control | [10] 90 % of control and 94 % of control

Brc1ccc(C2=NOP(c3ccccc3)(c3ccccc3)(c3ccccc3)C2)cc1
inactive: [4] 99 % of control | [5] 96 % of control

Nc1ccccc1Sc1cc(Cl)nnc1Cl
inactive: [11] 93 % of control | [12] 95 % of control | [13] 99 % of control

CC(=O)c1c[nH]cc1CO
inactive: [11] 107 % of control | [12] 100 % of control | [13] 98 % of control

C=CCC1(CCC)C(=O)NC(=S)NC1=O
inactive: [11] 110 % of control | [12] 117 % of control | [13] 115 % of control

CCn1c2ccccc2c2cc(N=Cc3cccc([N+](=O)[O-])c3)ccc21
inactive: [11] 97 % of control | [12] 98 % of control | [13] 88 % of control

Cc1ccc2c(c1)C1(SC(C)C(=O)N1c1ccc(Cl)cc1)C(=O)N2CN1CCOCC1 (centres undefined)
inactive: [9] 113 % of control | [14] 100 % of control | [10] 121 % of control

CCCC(=O)Oc1c(OC(=O)CCC)c(OC(=O)CCC)c(OC(=O)CCC)c(OC(=O)CCC)c1OC(=O)CCC
inactive: dose: 100.0 mg/kg/injection, schedule: Q04DX002 (ip), vehicle: saline with Tween-80 95 % of control | dose: 200.0 mg/kg/injection, schedule: Q04DX002 (ip), vehicle: saline with Tween-80 99 % of control | dose: 400.0 mg/kg/injection, schedule: Q04DX002 (ip), vehicle: saline with Tween-80 90 % of control

CCOC(=O)C(Cc1ccc(O)cc1)NC(=O)C1Cc2c([nH]c3ccccc23)C=N1 (centres undefined)
inactive: [9] 100 % of control | [14] 102 % of control | [10] 106 % of control

O=C(O)CCCCc1ccc(CCCCC(=O)O)cc1
inactive: dose: 18.75 mg/kg/injection, schedule: Q04DX003 (ip), vehicle: Klucel (hydroxypropylcellulose) (HPC) 106 % of control | dose: 37.5 mg/kg/injection, schedule: Q04DX003 (ip), vehicle: Klucel (hydroxypropylcellulose) (HPC) 111 % of control | dose: 75.0 mg/kg/injection, schedule: Q04DX003 (ip), vehicle: Klucel (hydroxypropylcellulose) (HPC) 113 % of control

CCn1c(S)c(N=NC(=S)c2ccc3ccccc3n2)c2ccccc21
inactive: dose: 50.0 mg/kg/injection, schedule: Q04DX003 (ip), vehicle: saline 98 % of control | dose: 100.0 mg/kg/injection, schedule: Q04DX003 (ip), vehicle: saline 96 % of control | dose: 200.0 mg/kg/injection, schedule: Q04DX003 (ip), vehicle: saline 103 % of control

Cc1c(Cl)cc([N+](=O)[O-])cc1S(=O)(=O)Oc1ccccc1
inactive: dose: 100.0 mg/kg/injection, schedule: Q01DX001 (ip), vehicle: Klucel (hydroxypropylcellulose) (HPC) 103 % of control | dose: 200.0 mg/kg/injection, schedule: Q01DX001 (ip), vehicle: Klucel (hydroxypropylcellulose) (HPC) 108 % of control | dose: 400.0 mg/kg/injection, schedule: Q01DX001 (ip), vehicle: Klucel (hydroxypropylcellulose) (HPC) 100 % of control

COc1ccccc1-n1c(C)nc2c(cnn2CN2CCCCC2)c1=O
inactive: [1] 99 % of control | [2] 115 % of control | [3] 101 % of control

N#Cc1ccc(C#N)cc1
inactive: [11] 90 % of control | dose: 50.0 mg/kg/injection, schedule: Q04DX003 (ip), vehicle: saline with Tween-80 91 % of control | [12] 100 % of control | [15] 91 % of control | [13] 100 % of control | [16] 87 % of control

COC1(OC)C(Cl)=C(Cl)C(Cl)=C1Cl
inactive: dose: 6.25 mg/kg/injection, schedule: Q01DX009 (ip), vehicle: saline with Tween-80 95 % of control | dose: 12.5 mg/kg/injection, schedule: Q01DX009 (ip), vehicle: saline with Tween-80 118 % of control | dose: 25.0 mg/kg/injection, schedule: Q01DX009 (ip), vehicle: saline with Tween-80 113 % of control

CC(C)CC(O)C(CC(=O)Nc1ccccc1)S(=O)(=O)c1ccccc1 (centres undefined)
inactive: [17] 100 % of control | [18] 92 % of control | [19] 86 % of control

N=C(N)COc1ccccc1
inactive: dose: 12.5 mg/kg/injection, schedule: Q01DX005 (ip), vehicle: saline 95 % of control | dose: 25.0 mg/kg/injection, schedule: Q01DX005 (ip), vehicle: saline 95 % of control | dose: 50.0 mg/kg/injection, schedule: Q01DX005 (ip), vehicle: saline 99 % of control and 101 % of control

Cc1cn(CCCCCCCCCCCCOc2c3occc3cc3ccc(=O)oc23)c(=O)[nH]c1=O
inactive: dose: 50.0 mg/kg/injection, schedule: Q04DX002 (ip), vehicle: Klucel (hydroxypropylcellulose) (HPC) 96 % of control | dose: 100.0 mg/kg/injection, schedule: Q04DX002 (ip), vehicle: Klucel (hydroxypropylcellulose) (HPC) 98 % of control | [3] 92 % of control | dose: 200.0 mg/kg/injection, schedule: Q04DX002 (ip), vehicle: Klucel (hydroxypropylcellulose) (HPC) 95 % of control

CCCCCOn1nnc2ccccc21
inactive: [15] 101 % of control | [16] 101 % of control | dose: 400.0 mg/kg/injection, schedule: Q04DX003 (ip), vehicle: saline with Tween-80 101 % of control

CCN(CC)CCNc1c2ccc(Cl)cc2nc2ccc(OC)nc12
inactive: [4] 114 % of control | [5] 111 % of control | [6] 117 % of control

Cc1cc(OCc2nc(N)nc(N)c2-c2ccc(Cl)c(Cl)c2)ccc1NS(=O)(=O)c1cccc(S(=O)(=O)F)c1
inactive: dose: 176.0 mg/kg/injection, schedule: Q04DX003 (ip), vehicle: saline 122 % of control
active: dose: 400.0 mg/kg/injection, schedule: Q04DX003 (ip), vehicle: saline 150 % of control

CC(NC(=O)OCc1ccccc1)C(=O)N1CCCC1C(=O)O (centres undefined)
inactive: [1] 91 % of control | [2] 90 % of control | [3] 98 % of control

[O-]c1ccc[n+]2c1sc1ncccc12 (tested in a mixture with another compound)
inactive: [17] 107 % of control | [18] 107 % of control | [19] 105 % of control

N#CC(=NCCO)C1=C(O)c2ccccc2C1=O
inactive: [9] 107 % of control | [14] 97 % of control | [10] 95 % of control
